Legend:
[1] = molecular target: Vascular endothelial growth factor receptor 2 (Homo sapiens) (UniProt P35968); assay: Inhibition of human KDR cytoplasmic domain expressed in baculovirus assessed as substrate phosphorylation using fluorescence-labelled peptides as substrate at 95 uM after 90 mins by microfluidic peptide phosphorylation assay
[2] = molecular target: T1, Serine/threonine-protein kinase BRSK2 (Homo sapiens) (UniProt Q8IWQ3); assay: Inhibition of human truncated BRSK2 expressed in baculovirus assessed as substrate phosphorylation using fluorescence-labelled peptides as substrate at 95 uM after 90 mins by microfluidic peptide phosphorylation assay
T1 sequence (whole entry): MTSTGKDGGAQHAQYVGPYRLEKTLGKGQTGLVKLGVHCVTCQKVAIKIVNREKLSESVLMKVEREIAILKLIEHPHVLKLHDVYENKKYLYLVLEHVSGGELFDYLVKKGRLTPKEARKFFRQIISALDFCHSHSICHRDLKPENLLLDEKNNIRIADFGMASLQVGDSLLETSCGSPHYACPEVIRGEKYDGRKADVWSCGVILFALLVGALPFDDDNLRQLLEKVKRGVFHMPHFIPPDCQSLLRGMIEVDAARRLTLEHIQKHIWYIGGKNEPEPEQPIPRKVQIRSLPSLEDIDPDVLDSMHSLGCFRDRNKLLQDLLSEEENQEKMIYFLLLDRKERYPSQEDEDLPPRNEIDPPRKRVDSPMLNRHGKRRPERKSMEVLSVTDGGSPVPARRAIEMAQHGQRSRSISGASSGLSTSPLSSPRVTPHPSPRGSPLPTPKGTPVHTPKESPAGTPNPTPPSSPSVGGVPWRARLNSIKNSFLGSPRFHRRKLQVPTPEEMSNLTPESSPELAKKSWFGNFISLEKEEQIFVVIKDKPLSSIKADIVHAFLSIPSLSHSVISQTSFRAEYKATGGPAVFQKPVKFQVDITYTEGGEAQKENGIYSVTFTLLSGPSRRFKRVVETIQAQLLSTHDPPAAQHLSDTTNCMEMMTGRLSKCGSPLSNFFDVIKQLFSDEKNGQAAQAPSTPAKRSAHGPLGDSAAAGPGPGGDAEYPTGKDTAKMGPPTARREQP

[3] = molecular target: Serine/threonine-protein kinase pim-1 (Homo sapiens) (UniProt P11309); assay: Inhibition of human full length PIM1 expressed in baculovirus assessed as substrate phosphorylation using fluorescence-labelled peptides as substrate at 95 uM after 90 mins by microfluidic peptide phosphorylation assay
Sequence of Serine/threonine-protein kinase pim-1 (Homo sapiens) (P11309 whole entry, looked up, the tested form may be a part): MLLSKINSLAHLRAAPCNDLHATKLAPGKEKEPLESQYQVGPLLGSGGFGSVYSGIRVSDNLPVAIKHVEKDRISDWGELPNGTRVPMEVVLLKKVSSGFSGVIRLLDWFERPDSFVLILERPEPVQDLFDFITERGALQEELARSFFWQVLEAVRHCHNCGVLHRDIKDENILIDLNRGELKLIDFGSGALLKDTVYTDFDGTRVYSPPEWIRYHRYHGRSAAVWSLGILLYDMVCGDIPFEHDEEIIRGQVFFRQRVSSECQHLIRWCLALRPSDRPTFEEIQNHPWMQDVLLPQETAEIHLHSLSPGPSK

[4] = molecular target: T1, Serine/threonine-protein kinase BRSK2 (Homo sapiens); assay: Inhibition of human truncated BRSK2 expressed in baculovirus assessed as substrate phosphorylation using fluorescence-labelled peptides as substrate at 0.2 uM after 90 mins by microfluidic peptide phosphorylation assay
[5] = molecular target: Rho-associated protein kinase 2 (Homo sapiens) (UniProt O75116); assay: Inhibition of human ROCK2 catalytic domain expressed in baculovirus assessed as substrate phosphorylation using fluorescence-labelled peptides as substrate at 0.2 uM after 90 mins by microfluidic peptide phosphorylation assay
Sequence of Rho-associated protein kinase 2 (Homo sapiens) (O75116 whole entry, looked up, the tested form may be a part): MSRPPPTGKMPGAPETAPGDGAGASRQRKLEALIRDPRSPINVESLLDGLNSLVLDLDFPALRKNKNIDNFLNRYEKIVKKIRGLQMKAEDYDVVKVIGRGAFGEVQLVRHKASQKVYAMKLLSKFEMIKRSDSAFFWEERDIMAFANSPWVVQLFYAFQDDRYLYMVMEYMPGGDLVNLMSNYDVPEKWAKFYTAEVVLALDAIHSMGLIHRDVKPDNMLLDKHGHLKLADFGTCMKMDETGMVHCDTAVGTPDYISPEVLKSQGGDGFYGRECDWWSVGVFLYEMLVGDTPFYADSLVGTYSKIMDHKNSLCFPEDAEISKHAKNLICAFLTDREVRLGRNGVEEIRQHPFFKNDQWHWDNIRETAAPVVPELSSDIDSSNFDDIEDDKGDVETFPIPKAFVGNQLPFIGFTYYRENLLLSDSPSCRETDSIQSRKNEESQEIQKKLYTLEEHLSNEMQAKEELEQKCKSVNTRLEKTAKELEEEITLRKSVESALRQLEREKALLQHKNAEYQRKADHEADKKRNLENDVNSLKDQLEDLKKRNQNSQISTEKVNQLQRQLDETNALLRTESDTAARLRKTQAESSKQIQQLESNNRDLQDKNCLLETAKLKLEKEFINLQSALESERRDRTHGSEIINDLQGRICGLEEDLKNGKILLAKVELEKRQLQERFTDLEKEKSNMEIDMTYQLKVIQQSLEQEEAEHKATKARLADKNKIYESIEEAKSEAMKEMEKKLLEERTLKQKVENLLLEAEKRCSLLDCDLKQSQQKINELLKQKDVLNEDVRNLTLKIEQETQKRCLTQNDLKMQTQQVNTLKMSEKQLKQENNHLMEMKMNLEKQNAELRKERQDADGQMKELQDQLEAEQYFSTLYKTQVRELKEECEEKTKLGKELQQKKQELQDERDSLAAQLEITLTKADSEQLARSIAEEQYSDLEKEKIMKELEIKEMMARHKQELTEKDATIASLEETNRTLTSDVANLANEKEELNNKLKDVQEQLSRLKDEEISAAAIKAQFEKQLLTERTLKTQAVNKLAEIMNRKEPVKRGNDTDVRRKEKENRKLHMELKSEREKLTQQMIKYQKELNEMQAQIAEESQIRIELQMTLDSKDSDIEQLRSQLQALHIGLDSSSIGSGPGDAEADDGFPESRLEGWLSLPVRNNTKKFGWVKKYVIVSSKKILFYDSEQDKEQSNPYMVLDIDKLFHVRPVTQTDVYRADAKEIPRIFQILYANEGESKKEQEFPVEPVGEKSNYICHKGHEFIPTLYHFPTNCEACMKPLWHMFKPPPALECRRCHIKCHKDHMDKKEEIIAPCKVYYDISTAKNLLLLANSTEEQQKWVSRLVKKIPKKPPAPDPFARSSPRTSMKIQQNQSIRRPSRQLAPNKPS

[6] = molecular target: Serine/threonine-protein kinase PAK 2 (Homo sapiens) (UniProt Q13177); assay: Inhibition of human truncated PAK2 expressed in Escherichia coli cell assessed as substrate phosphorylation using fluorescence-labelled peptides as substrate at 8 uM after 90 mins by microfluidic peptide phosphorylation assay
Sequence of Serine/threonine-protein kinase PAK 2 (Homo sapiens) (Q13177 whole entry, the tested form may be a part): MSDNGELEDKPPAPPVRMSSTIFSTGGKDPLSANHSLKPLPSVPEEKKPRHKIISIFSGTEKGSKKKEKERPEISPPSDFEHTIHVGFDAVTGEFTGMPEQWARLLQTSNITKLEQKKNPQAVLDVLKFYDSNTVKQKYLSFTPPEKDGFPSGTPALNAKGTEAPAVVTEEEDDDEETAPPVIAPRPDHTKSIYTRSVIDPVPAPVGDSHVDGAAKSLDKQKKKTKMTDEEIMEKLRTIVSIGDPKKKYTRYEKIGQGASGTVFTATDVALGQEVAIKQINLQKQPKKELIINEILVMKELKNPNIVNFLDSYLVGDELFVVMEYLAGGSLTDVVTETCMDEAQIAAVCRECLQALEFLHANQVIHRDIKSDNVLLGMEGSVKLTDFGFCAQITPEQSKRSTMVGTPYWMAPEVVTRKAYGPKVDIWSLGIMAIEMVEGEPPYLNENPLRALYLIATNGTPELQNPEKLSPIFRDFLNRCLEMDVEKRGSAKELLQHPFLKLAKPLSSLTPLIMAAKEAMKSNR

[7] = molecular target: Calcium/calmodulin-dependent protein kinase type II subunit delta (Homo sapiens) (UniProt Q13557); assay: Inhibition of human full length CAMK2D expressed in baculovirus assessed as substrate phosphorylation using fluorescence-labelled peptides as substrate at 8 uM after 90 mins by microfluidic peptide phosphorylation assay
Sequence of Calcium/calmodulin-dependent protein kinase type II subunit delta (Homo sapiens) (Q13557 whole entry, the tested form may be a part): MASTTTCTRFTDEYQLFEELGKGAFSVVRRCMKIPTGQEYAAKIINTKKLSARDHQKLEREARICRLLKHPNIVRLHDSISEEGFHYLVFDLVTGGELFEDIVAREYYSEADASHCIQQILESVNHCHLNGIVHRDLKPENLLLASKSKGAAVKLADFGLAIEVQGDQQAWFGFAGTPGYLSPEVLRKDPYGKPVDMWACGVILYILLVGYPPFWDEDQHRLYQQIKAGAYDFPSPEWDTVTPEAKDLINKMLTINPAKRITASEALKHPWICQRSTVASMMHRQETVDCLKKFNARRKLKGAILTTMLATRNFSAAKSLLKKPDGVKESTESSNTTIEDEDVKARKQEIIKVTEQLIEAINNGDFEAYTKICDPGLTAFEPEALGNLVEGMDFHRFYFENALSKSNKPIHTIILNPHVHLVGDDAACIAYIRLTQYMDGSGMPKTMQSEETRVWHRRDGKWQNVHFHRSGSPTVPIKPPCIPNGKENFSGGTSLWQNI

[8] = molecular target: T2, Serine/threonine-protein kinase Sgk1 (Homo sapiens) (UniProt O00141); assay: Inhibition of human truncated SGK1 expressed in baculovirus assessed as substrate phosphorylation using fluorescence-labelled peptides as substrate at 0.06 uM after 90 mins by microfluidic peptide phosphorylation assay
T2 sequence (whole entry): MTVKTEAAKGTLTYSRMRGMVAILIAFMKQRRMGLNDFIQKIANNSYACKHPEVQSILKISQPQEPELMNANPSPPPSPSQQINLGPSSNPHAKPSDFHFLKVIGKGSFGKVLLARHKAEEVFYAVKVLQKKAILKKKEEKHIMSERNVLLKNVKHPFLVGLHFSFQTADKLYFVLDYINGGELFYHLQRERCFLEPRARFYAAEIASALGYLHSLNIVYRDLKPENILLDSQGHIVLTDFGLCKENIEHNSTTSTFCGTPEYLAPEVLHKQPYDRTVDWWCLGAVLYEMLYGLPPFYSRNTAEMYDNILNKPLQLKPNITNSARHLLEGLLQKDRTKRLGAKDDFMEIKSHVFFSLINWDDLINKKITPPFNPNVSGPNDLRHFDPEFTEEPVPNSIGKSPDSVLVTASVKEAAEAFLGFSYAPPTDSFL

[9] = molecular target: Insulin-like growth factor 1 receptor (Homo sapiens) (UniProt P08069); assay: Inhibition of human IGF1R catalytic domain expressed in baculovirus assessed as substrate phosphorylation using fluorescence-labelled peptides as substrate at 0.1 uM after 90 mins by microfluidic peptide phosphorylation assay
[10] = molecular target: Calcium/calmodulin-dependent protein kinase type II subunit delta (Homo sapiens) (UniProt Q13557); details: 0.1 uM
Description: Inhibition of human full length CAMK2D expressed in baculovirus assessed as substrate phosphorylation using fluorescence-labelled peptides as substrate at 0.1 uM after 90 mins by microfluidic peptide phosphorylation assay

[11] = molecular target: T3, Serine/threonine-protein kinase 3 (Homo sapiens) (UniProt Q13188); assay: Inhibition of human full length MST2 expressed in baculovirus assessed as substrate phosphorylation using fluorescence-labelled peptides as substrate at 420 uM after 90 mins by microfluidic peptide phosphorylation assay
T3 sequence (whole entry): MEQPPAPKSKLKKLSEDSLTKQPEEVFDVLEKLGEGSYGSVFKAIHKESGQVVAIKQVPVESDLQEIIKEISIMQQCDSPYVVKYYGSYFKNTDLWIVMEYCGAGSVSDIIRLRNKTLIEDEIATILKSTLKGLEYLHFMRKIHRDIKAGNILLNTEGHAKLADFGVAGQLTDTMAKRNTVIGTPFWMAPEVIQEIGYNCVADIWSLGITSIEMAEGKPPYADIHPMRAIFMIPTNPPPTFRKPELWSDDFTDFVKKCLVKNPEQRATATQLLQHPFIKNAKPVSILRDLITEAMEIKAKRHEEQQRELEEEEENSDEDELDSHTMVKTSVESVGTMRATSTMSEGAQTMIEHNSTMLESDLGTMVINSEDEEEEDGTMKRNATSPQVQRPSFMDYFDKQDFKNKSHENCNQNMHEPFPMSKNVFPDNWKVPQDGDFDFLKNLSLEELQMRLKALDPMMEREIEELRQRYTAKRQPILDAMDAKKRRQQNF

Sequence of Vascular endothelial growth factor receptor 2 (Homo sapiens) (P35968 whole entry, the tested form may be a part): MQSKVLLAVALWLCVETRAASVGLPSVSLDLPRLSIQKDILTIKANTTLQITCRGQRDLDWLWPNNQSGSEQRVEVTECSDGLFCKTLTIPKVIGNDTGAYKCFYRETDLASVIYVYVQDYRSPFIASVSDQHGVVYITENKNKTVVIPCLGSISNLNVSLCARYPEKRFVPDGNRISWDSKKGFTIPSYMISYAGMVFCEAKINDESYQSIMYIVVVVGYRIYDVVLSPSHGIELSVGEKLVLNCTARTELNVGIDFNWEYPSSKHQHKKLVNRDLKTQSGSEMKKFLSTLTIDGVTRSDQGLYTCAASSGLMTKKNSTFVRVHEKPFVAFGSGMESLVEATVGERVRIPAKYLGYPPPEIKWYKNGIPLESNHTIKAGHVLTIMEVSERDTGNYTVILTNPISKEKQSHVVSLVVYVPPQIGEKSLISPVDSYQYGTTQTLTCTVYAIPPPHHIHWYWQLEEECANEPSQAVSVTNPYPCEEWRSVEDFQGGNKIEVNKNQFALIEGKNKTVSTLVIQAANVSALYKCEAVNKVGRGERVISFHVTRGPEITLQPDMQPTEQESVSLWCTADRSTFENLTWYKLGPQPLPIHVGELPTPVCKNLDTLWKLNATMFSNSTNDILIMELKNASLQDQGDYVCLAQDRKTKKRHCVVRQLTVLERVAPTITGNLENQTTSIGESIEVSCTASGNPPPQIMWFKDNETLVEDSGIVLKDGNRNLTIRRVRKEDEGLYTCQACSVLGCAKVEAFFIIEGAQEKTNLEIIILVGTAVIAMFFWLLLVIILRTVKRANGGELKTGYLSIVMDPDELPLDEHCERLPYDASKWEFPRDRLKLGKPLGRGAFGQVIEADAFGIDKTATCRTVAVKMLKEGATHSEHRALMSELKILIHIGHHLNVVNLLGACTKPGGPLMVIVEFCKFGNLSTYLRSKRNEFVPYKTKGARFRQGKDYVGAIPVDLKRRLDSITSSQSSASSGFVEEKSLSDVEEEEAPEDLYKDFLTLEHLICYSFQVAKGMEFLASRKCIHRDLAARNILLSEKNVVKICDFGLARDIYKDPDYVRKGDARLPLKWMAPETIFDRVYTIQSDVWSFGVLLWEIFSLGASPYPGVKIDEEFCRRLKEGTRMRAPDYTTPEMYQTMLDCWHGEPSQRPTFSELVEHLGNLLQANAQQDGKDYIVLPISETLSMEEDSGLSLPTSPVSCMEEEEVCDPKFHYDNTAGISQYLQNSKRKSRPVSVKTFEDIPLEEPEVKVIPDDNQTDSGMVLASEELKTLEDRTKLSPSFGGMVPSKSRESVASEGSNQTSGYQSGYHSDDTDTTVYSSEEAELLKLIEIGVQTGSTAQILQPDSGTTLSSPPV

For `NCCc1ccc(-c2ncnc3[nH]cnc23)cc1`, the inhibition [1] was 72.5%, the inhibition [2] was 40% and the inhibition [3] was 42.5%.

For `Clc1ccc(C2(c3ccc(-c4ncnc5[nH]cnc45)cc3)CCNCC2)cc1`, the inhibition [4] was 13% and the inhibition [5] was 97%.

With `NCC1CCN(c2ncnc3[nH]ccc23)CC1` the inhibition [6] was 24.5% and the inhibition [7] was 25%.

Work on `NC1(Cc2ccc(Cl)cc2)CCN(c2ncnc3[nH]ccc23)CC1` yielded an inhibition [8] of 56%.

`C[C@H](CN(C)C)Oc1nc(Nc2cc3cccc(Cl)c3cn2)cnc1C#N` was tested, and the inhibition [9] was 9.5% and the inhibition [10] was 0%.

Molecule `c1nc(N2CCOCC2)c2nc[nH]c2n1` has an inhibition [11] of 99%.
